This experiment has as its system HBV. Conditions: Hepatitis B virus, HePAD38, 144 h, read-out: Cell Activity.

Structures are written as SMILES. Where a name gives a salt, the structure may show the parent alone.

For the molecule `Nc1nc2c(s1)CN(C(=O)Nc1ccc(F)c(Cl)c1)CC2` [Example 1, 2-amino -N-(3-chloro-4-fluorophenyl)-4H,5H,6H,7H-[1,3] thiazolo[5,4-c]pyridine-5-carboxamide], the EC50 was less than 1000 nM.

As to `O=C(Nc1ccc(F)c(Cl)c1)N1CCc2nc(N[C@H]3C[C@H](O)C3)sc2C1` [Example 2, N-(3-chloro-4-fluorophenyl)-2-{[(1r,3r)-3-hydroxycyclobutyl]amino}-4H,5H,6H,7H-[1,3]thiazolo[5,4-c]pyridine-5-carboxamide], the EC50 is less than 1000 nM.

Turning to `O=C(Nc1ccc(F)c(Cl)c1)N1CCc2nc(NC3(CO)CCC3)sc2C1` [Example 3, N-(3-chloro-4-fluorophenyl)-2-{[1-(hydroxymethyl)cyclobutyl]amino}-4H,5H,6H,7H-[1,3]thiazolo[5,4-c]pyridine-5-carboxamide], the EC50 was less than 1000 nM.

Consider `O=C(Nc1ccc(F)c(Cl)c1)N1CCc2nc(NC3CCOC3)sc2C1` (stereo not drawn) [Example 4, N-(3-chloro-4-fluorophenyl)-2-[(oxolan-3-yl)amino]-4H,5H,6H,7H-[1,3]thiazolo[5,4-c]pyridine-5-carboxamide], for which the EC50 is less than 1000 nM.

As to `O=C(Nc1ccc(F)c(Cl)c1)N1CCc2nc(NCC3CCOC3)sc2C1` (stereo not drawn) [Example 5, N-(3-chloro-4-fluorophenyl)-2-{[(oxolan-3-yl)methyl]amino}-4H,5H,6H,7H-[1,3]thiazolo [5,4-c]pyridine-5-carboxamide], the EC50 is less than 1000 nM.

Turning to `O=C(Nc1ccc(F)c(Cl)c1)N1CCc2nc(NCC3(O)CCC3)sc2C1` [Example 6, N-(3-chloro-4-fluorophenyl)-2-{[(1-hydroxycyclobutyl)methyl]amino}-4H,5H,6H,7H-[1,3]thiazolo[5,4-c]pyridine-5-carboxamide], the EC50 is less than 1000 nM.

On to `O=C(Nc1ccc(F)c(Cl)c1)N1CCc2nc(N[C@H]3CC[C@@H](O)CC3)sc2C1` [Example 7, N-(3-chloro-4-fluorophenyl)-2-{[(1s,4s)-4-hydroxycyclohexyl]amino}-4H,5H,6H,7H-[1,3]thiazolo[5,4-c]pyridine-5-carboxamide], for which the EC50 is less than 1000 nM.

On to `CN1CCC(C(=O)Nc2nc3c(s2)CN(C(=O)Nc2ccc(F)c(Cl)c2)CC3)CC1` [Example 8, N-{5-[(3-chloro-4-fluorophenyl)carbamoyl]-4H,5H,6H,7H-[1,3]thiazolo[5,4-c]pyridin-2-yl}-1-methylpiperidine-4-carboxamide formate], for which the EC50 is less than 1000 nM.

As for `O=C(Nc1ccc(F)c(Cl)c1)N1CCc2nc(NCC3(O)CC(F)(F)C3)sc2C1` [Example 9, N-(3-chloro-4-fluorophenyl)-2-{[(3,3-difluoro-1-hydroxycyclobutyl)methyl]amino}-4H,5H,6H,7H-[1,3]thiazolo[5,4-c]pyridine-5-carboxamide], the EC50 was less than 1000 nM.

In the case of `O=C(Nc1nc2c(s1)CN(C(=O)Nc1ccc(F)c(Cl)c1)CC2)C1CCOC1` (stereo not drawn) [Example 10, N-(3-chloro-4-fluorophenyl)-2-(oxolane-3-amido)-4H,5H,6H,7H-[1,3]thiazolo[5,4-c]pyridine-5-carboxamide], the EC50 is less than 1000 nM.

On to `O=C(Nc1nc2c(s1)CN(C(=O)Nc1ccc(F)c(Cl)c1)CC2)C1CCOCC1` [Example 11, N-(3-chloro-4-fluorophenyl)-2-(oxane-4-amido)-4H,5H,6H,7H-[1,3]thiazolo[5,4-c]pyridine-5-carboxamide], for which the EC50 is less than 1000 nM.

With `O=C(Nc1ccc(F)c(Cl)c1)N1CCc2nc(NCC3(O)CC3)sc2C1` [Example 12, N-(3-chloro-4-fluorophenyl)-2-{[(1-hydroxycyclopropyl)methyl]amino}-4H,5H,6H,7H-[1,3]thiazolo[5,4-c]pyridine-5-carboxamide], the EC50 was less than 1000 nM.

Consider `Cc1cc(NC(=O)N2CCc3nc(NCC4(O)CCC4)sc3C2)ccc1F` [Example 13, N-(4-fluoro-3-methylphenyl)-2-{[(1-hydroxycyclobutyl)methyl]amino}-4H,5H,6H,7H-[1,3]thiazolo[5,4-c]pyridine-5-carboxamide], for which the EC50 is less than 1000 nM.

Regarding `N#Cc1cc(NC(=O)N2CCc3nc(NCC4(O)CCC4)sc3C2)ccc1F` [Example 14, N-(3-cyano-4-fluorophenyl)-2-{[(1-hydroxycyclobutyl)methyl]amino}-4H,5H,6H,7H-[1,3]thiazolo[5,4-c]pyridine-5-carboxamide], the EC50 is less than 1000 nM.

For `O=C(Nc1nc2c(s1)CN(C(=O)Nc1ccc(F)c(Cl)c1)CC2)C1CCC(O)CC1` (stereo not drawn) [Example 15, N-(3-chloro-4-fluorophenyl)-2-(4-hydroxycyclohexaneamido)-4H,5H,6H,7H-[1,3]thiazolo[5,4-c]pyridine-5-carboxamide], the EC50 is less than 1000 nM.

`O=C(Nc1ccnc(C(F)F)c1)N1CCc2nc(N[C@H]3C[C@H](O)C3)sc2C1` [Example 16, N-[2-(difluoromethyl)pyridin-4-yl]-2-{[(1r,3r)-3-hydroxycyclobutyl]amino}-4H,5H,6H,7H-[1,3]thiazolo[5,4-c]pyridine-5-carboxamide]: the EC50 is 1000 to 10000 nM.

In the case of `O=C(Nc1ccc(F)c(Cl)c1)N1CCc2nc(NS(=O)(=O)C3CC3)sc2C1` [Example 17, N-(3-chloro-4-fluorophenyl)-2-cyclopropanesulfonamido-4H,5H,6H,7H-[1,3]thiazolo[5,4-c]pyridine-5-carboxamide], the EC50 lay within 1000 to 10000 nM.

Take `CC1(S(=O)(=O)Nc2nc3c(s2)CN(C(=O)Nc2ccc(F)c(Cl)c2)CC3)CC1` [Example 18, N-(3-chloro-4-fluorophenyl)-2-(1-methylcyclopropanesulfonamido)-4H,5H,6H,7H-[1,3]thiazolo[5,4-c]pyridine-5-carboxamide]: the EC50 was in the range of 1000 to 10000 nM.

As to `O=C(Nc1ccnc(C(F)F)c1)N1CCc2nc(NCC3(O)CCC3)sc2C1` [Example 19, N-[2-(difluoromethyl)pyridin-4-yl]-2-{[(1-hydroxycyclobutyl)methyl]amino}-4H,5H,6H,7H-[1,3]thiazolo[5,4-c]pyridine-5-carboxamide], the EC50 was 1000 to 10000 nM.

On to `O=C(Nc1ccc(F)c(Cl)c1)N1CCc2nc(NC(=O)[C@H]3C[C@H](O)C3)sc2C1` [Example 20, N-(3-chloro-4-fluorophenyl)-2-[(1r,3r)-3-hydroxycyclobutaneamido]-4H,5H,6H,7H-[1,3]thiazolo[5,4-c]pyridine-5-carboxamide], for which the EC50 is less than 1000 nM.

For the molecule `C[C@H]1Cc2nc(NC(=O)[C@H]3C[C@H](O)C3)sc2CN1C(=O)Nc1ccc(F)c(Cl)c1` [Example 21, (6S)-N-(3-chloro-4-fluorophenyl)-6-methyl-2-[(1r,3r)-3-hydroxycyclobutaneamido]-4H,5H,6H,7H-[1,3]thiazolo[5,4-c]pyridine-5-carboxamide], the EC50 is less than 1000 nM.
